Consider 12 molecules from patent US9975922B2, “Peptide inhibitor of HIV reverse transcription” (priority 2013, dated 2018).

Where a SMILES comes first, the peptide text is derived from it.

The target of assay [1] is modified hASL^Lys3UUU. The assay can be described thus: fluorescent binding assay of fluorescein-labeled peptides, binding constants. The following applies: for Kd: Modified hASL^Lys3UUU, N-terminal fluorescein peptide, phosphate buffer pH 6.8, ASL 0-3 μM; for affinity relative to P6: from Kd values, compared with P6. Details: species or system human. The protocol:
(§1) Fifteen-amino acid peptides were selected from the sequences predicted in silico and were chemically synthesized, each with fluorescein (Flc) at the N-terminus. This set of peptides included the original P1 and P6 sequences to be used as an internal control. […] Concentrated peptide stocks were stored in 25 μl aliquots at […] for later use. Working concentrations were diluted for each experiment and kept on ice or stored at −20° C.
(§2) Fluorescent assays were conducted in phosphate buffer (10 mM Na2HPO4 and 10 mM KH2PO4, pH 6.8) in low volume 384 well plates. All buffers, peptides, and RNA were pipetted into wells via a liquid handling robot (Janus, PerkinElmer). All plates were read using a plate reader fitted with fluorescein specific filters (PerkinElmer EnVision) which was optimized for each plate and peptide before each experiment. Initial validation screens were conducted by obtaining fluorescent signals for each peptide (0.50 μM) alone (FS0) and in the presence of a 2-fold excess of modified or unmodified hASLLys3UUU (FS1). Percent change in fluorescent signal was calculated (% Change=100*(FS1/FS0)). A decrease (quench) in fluorescent signal in the presence of RNA indicated a binding event between the peptide and ASL. In control wells H2O, phosphate buffer, and ASLs were individually tested for any inherent fluorescent signal. Water and buffer signals served as blank background signals. […] All controls and experimental sets were repeated in triplicate within a single plate and signals are an average of each triplicate. For the subset of peptides which were further studied to obtained binding constants, the fluorescent binding assay was completed as above. The peptide fluorescent signal was monitored throughout an increasing ASL concentration (0-3 μM). The percent quench in signal was plotted against the hASL concentration. Binding constants (Kd) were calculated using the single linear regression function within SigmaPlot. Experiments were performed in triplicate within a single plate and fluorescent signals are an average of each triplicate.

In assay [2] the test system is modified hASL^Lys3UUU. The assay can be described thus: initial validation screen, change in peptide fluorescence on addition of ASL. Type of assay: binding, human. The following applies: 2-fold excess of modified hASL^Lys3UUU; result in words. As for the experimental part:
(§3) An initial fluorescent signal (FS0) of peptide alone ([…]) was obtained. Then, a 2-fold excess of ASL was added to each peptide and the fluorescent signal (FS1) was monitored. The percent change (100*(FS1/FS0)) is graphed for each of the assayed peptides. Dark gray bars represent the percent change in fluorescence in the presence of the modified hASL^Lys3UUU and light gray bars represent the percent change in the presence of the unmodified hASL^Lys3UUU.
(§4) Sequences predicted during the in silico optimizations to have the lowest binding energies and thus, potentially higher affinity for modified hASL^Lys3, were selected for validation with a fluorescence assay (9). Fifteen peptides (Table 3) were chemically synthesized with fluorescein at the N-terminus to allow for very sensitive, low volume detection of peptide-RNA binding interactions. P1 and P6 from phage display selections (9), the initially evolved sequences, P26 and P27, and the best binders from each of the Cases 1, 2 and 3 were synthesized. Variants of these sequences that had one or two amino acid changes were also synthesized (Table 3). During the initial validation assay, changes in the amount of fluorescence were monitored to determine whether the peptide was binding to the modified and/or unmodified hASLLys3UUU and to what relative degree (FIG. 12). In this screening assay, P6 behaved as expected. […] Other peptides behaved similarly.
as §1, §2

Assay [3] concerns unmodified hASL^Lys3UUU. The description is as above. Type of assay: binding, human. The following applies: 2-fold excess of unmodified hASL^Lys3UUU; result in words. The protocol: as §3, §4, §1, §2
Another assay has as its system hypermodified ASL^Lys3. Particulars: result in words; cited from earlier work.
Assay [4] relates to singly modified ASL^Lys3, AsL^Lys1, 2 and Escherichia coli ASL^Glu and ASL^Val. Particulars: singly modified ASL^Lys3, ASL^Lys1,2, E. coli ASL^Glu and ASL^Val; result in words; cited from earlier work.
For another assay, the target named is modified hASLLys3. Particulars: cited from earlier work.
The next assay deals with unmodified ASL. Particulars: NCp7, unmodified ASL; cited from earlier work.
The target in assay [5] is unmodified hASL^Lys3UUU. The assay can be described thus: fluorescent binding assay of fluorescein-labeled peptides, binding constants. Set-up: species or system human. Particulars: N-terminal fluorescein peptide, phosphate buffer pH 6.8, ASL 0-3 μM. The protocol: as §1, §2

Usually Kd stands for the free concentration of one partner at which half of the binding sites on the other are occupied at equilibrium, for simple one-to-one binding. Consider `CC(C)C[C@H](NC(=O)[C@H](Cc1ccccc1)NC(=O)[C@H](C)NC(=O)[C@H](Cc1c[nH]cn1)NC(=O)[C@H](Cc1c[nH]cn1)NC(=O)[C@@H](NC(=O)[C@@H](NC(=O)[C@@H](N)CCCNC(=N)N)C(C)C)[C@@H](C)O)C(=O)NCC(=O)N[C@@H](C)C(=O)N[C@@H](Cc1c[nH]cn1)C(=O)N[C@@H](CCCNC(=N)N)C(=O)N[C@H](C(=O)N[C@H](C(=O)NCC(=O)O)C(C)C)[C@@H](C)O` [Peptide P6, RVTHHAFLGAHRTVG, reference compound] (H-RVTHHAFLGAHRTVG-OH), for which the Kd at modified hASL^Lys3UUU [1] was found to be 500 ± 100 nM. Further, in the assay on modified hASL^Lys3UUU [2], the “change in fluorescent signal of peptide (binding, preference for modified ASL)” value (“change … (binding, preference for modified ASL)” below) is “quenched more than when bound by the unmodified hASL^Lys3UUU”.

`CSCC[C@H](NC(=O)[C@H](CCCNC(=N)N)NC(=O)[C@H](Cc1c[nH]c2ccccc12)NC(=O)[C@H](CC(C)C)NC(=O)[C@@H]1CCCN1C(=O)[C@H](Cc1c[nH]cn1)NC(=O)[C@H](Cc1ccccc1)NC(=O)[C@H](CO)NC(=O)[C@H](Cc1c[nH]cn1)NC(=O)[C@H](Cc1c[nH]cn1)NC(=O)[C@H](CCC(N)=O)NC(=O)[C@H](Cc1c[nH]c2ccccc12)NC(=O)[C@@H](N)CCCNC(=N)N)C(=O)N[C@@H](CO)C(=O)NCC(=O)O` [Peptide P31, RWQHHSFHPLWRMSG] (H-RWQHHSFHPLWRMSG-OH): at modified hASL^Lys3UUU [1], the Kd is 580 ± 240 nM and the “affinity relative to P6” value is on record as “equivalent to P6”. Further, the “change … (binding, preference for modified ASL)” value with modified hASL^Lys3UUU [2] is “quenched to a greater degree in binding the modified hASL^Lys3UUU than was the fluorescence of P6”. The “change in fluorescent signal of peptide” value in the assay on unmodified hASL^Lys3UUU [3] is “little or no change in fluorescence”.

Consider RGVFSHPHTAVPSHN, for which the binding affinity entry in the assay with hypermodified ASL^Lys3 is reported as “relatively high binding affinity”. The binding entry in assay [4] is given as “bound poorly”.

Consider RFQHSNWFSGWKVNG [Peptide P34], for which, in the assay with modified hASL^Lys3UUU [2], the “change … (binding, preference for modified ASL)” value is listed as “increased the fluorescence either with the unmodified or modified hASL^Lys3UUU, but not both”.

Consider RHHHASFGPPWLSHG [Peptide P32], for which the “change … (binding, preference for modified ASL)” value in the assay on modified hASL^Lys3UUU [2] is “significantly weaker affinities and a lack of specificity”.

Take “NCp7: HIV-1 nucleocapsid protein 7, binds and destabilizes htRNA^Lys3UUU (MQRGNFRNQRKIVKCFNCGKEGHTARNCRAPRKKGCWKCGKEGHQMKDCTERQAN; Nucleocapsid protein p7; UniProt P04591 378-432, looked up)”: the dissociation constant (Kd) at modified hASLLys3 (NCp7, modified hASLLys3) was 280 ± 30 nM; on unmodified ASL, 2300 ± 620 nM. Further, in the assay with modified hASLLys3 (modified vs unmodified hASLLys3), the “increase of NCp7 affinity by the modifications” value was approximately 10 fold.

On to RWTHCQFWQGFRVNG [Peptide P38], for which the “change … (binding, preference for modified ASL)” value with modified hASL^Lys3UUU [2] is on record as “increased the fluorescence either with the unmodified or modified hASL^Lys3UUU, but not both”.

As to `CC(C)C[C@H](NC(=O)[C@H](CO)NC(=O)[C@@H]1CCCN1C(=O)[C@H](Cc1ccccc1)NC(=O)[C@H](CO)NC(=O)[C@@H](NC(=O)[C@H](CO)NC(=O)[C@@H](N)Cc1ccccc1)C(C)C)C(=O)N1CCC[C@H]1C(=O)N[C@@H](C)C(=O)N1CCC[C@H]1C(=O)N1CCC[C@H]1C(=O)N[C@@H](CC(=O)O)C(=O)N[C@@H](CCCNC(=N)N)C(=O)N[C@@H](CO)C(=O)O` [Peptide P1, FSVSFPSLPAPPDRS, reference compound] (H-FSVSFPSLPAPPDRS-OH), on modified hASL^Lys3UUU [1], the affinity, expressed as Kd, was 130 ± 20 nM and the “affinity relative to P6” value was “four fold”. The dissociation constant (Kd) at unmodified hASL^Lys3UUU [5] came out at 150 ± 40 nM. In addition, in the assay on modified hASL^Lys3UUU [2], the “change … (binding, preference for modified ASL)” value is reported as “increased the fluorescence either with the unmodified or modified hASL^Lys3UUU, but not both”.

On to `CSCC[C@H](NC(=O)[C@H](CCC(N)=O)NC(=O)[C@H](Cc1c[nH]c2ccccc12)NC(=O)[C@@H](N)CCCNC(=N)N)C(=O)N[C@H](C(=O)N[C@@H](C)C(=O)N[C@@H](Cc1ccccc1)C(=O)N[C@@H](C)C(=O)N[C@@H](Cc1c[nH]cn1)C(=O)NCC(=O)N[C@@H](Cc1c[nH]c2ccccc12)C(=O)N[C@@H](CCCNC(=N)N)C(=O)N[C@@H](Cc1c[nH]cn1)C(=O)N[C@@H](CO)C(=O)NCC(=O)O)[C@@H](C)O` [Peptide P27, RWQMTAFAHGWRHSG] (H-RWQMTAFAHGWRHSG-OH), for which, at modified hASL^Lys3UUU [1], the equilibrium dissociation constant (Kd) worked out at 50 ± 20 nM and the “affinity relative to P6” value is given as 10 fold. Further, in the assay with modified hASL^Lys3UUU [2], the “change … (binding, preference for modified ASL)” value is “quenched to a greater degree in binding the modified hASL^Lys3UUU than was the fluorescence of P6”. Further, the “change in fluorescent signal of peptide” value with unmodified hASL^Lys3UUU [3] is “little or no change in fluorescence”.

Consider RTLHHALFGAHQTVG [Peptide P26], for which the “change … (binding, preference for modified ASL)” value in the assay on modified hASL^Lys3UUU [2] is listed as “increased the fluorescence either with the unmodified or modified hASL^Lys3UUU, but not both”.

As for RWNGSQWFCAWRANG [Peptide P36], the “change … (binding, preference for modified ASL)” value in the assay with modified hASL^Lys3UUU [2] is listed as “increased the fluorescence either with the unmodified or modified hASL^Lys3UUU, but not both”.

Turning to RHSHAHFGPPWLSHG [Peptide P33], in the assay on modified hASL^Lys3UUU [2], the “change … (binding, preference for modified ASL)” value was “significantly weaker affinities and a lack of specificity”.
